Measurements as given in PMC2662629 (Pharmaceutical research, 2008).
“And” between values parts separate entries of the source, which are not always exact repeats. Identical values can stand only once. “Also recorded” adds a separate entry of the source. Like-named read-outs stand apart in the source and are kept apart here. One block for each molecule: values may come before it.

Tests used:
ABCG2 = biological target: T1, ABCG2 (Rattus norvegicus, UniProt Q80W57); experiment: Bodipy FL prazosin transport assay in isolated rat brain capillaries; assay type: cell-based; settings: for IC50: rat brain capillaries
T1 sequence (Q80W57 1-657): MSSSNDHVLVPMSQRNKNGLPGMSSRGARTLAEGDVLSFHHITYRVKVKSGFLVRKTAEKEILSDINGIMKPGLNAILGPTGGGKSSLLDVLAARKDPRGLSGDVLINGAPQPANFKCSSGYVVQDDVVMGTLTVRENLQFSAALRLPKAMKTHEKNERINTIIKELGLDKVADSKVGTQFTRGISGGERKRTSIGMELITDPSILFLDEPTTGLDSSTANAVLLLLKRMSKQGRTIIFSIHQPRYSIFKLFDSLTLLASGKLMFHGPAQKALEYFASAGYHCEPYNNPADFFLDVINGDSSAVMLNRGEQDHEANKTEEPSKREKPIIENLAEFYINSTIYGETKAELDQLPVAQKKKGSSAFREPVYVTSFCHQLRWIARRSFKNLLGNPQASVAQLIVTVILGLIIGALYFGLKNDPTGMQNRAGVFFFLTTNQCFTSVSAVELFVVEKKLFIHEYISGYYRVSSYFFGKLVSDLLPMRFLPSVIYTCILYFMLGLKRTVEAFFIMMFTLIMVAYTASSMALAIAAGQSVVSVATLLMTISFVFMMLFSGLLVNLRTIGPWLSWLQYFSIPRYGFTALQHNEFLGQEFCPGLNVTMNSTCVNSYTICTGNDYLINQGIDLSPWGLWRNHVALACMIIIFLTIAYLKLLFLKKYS

MCF-7 cells = settings: read-out: IC50 for MCF-7 cells; cited from earlier work
mouse ABCG2 [1] = biological target: T2, mouse ABCG2 (Mus musculus, UniProt Q7TMS5); assay type: in vivo, mice
T2 sequence (Q7TMS5 1-657): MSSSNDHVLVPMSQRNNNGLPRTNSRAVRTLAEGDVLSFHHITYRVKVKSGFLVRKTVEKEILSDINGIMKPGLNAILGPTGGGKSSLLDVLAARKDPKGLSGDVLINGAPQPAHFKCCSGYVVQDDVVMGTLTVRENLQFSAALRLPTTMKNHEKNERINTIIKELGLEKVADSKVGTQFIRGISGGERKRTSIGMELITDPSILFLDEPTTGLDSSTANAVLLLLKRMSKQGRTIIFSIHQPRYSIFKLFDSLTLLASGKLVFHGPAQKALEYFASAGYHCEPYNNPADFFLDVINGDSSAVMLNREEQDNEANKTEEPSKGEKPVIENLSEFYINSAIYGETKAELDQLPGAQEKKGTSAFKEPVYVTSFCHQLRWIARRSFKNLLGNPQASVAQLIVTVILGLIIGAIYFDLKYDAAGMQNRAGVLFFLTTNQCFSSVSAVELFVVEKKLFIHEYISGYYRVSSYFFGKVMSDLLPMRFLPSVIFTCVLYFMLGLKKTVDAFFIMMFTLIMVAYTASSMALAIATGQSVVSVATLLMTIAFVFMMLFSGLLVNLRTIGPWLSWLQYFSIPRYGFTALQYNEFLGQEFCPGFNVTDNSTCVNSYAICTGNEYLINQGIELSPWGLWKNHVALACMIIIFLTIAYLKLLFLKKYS

mouse ABCG2 [2] = assay type: in vivo, mice; settings: FVB, mouse, plasma, oral, 20 mg/kg
human ABCG2 = biological target: T3, human ABCG2 (Homo sapiens, UniProt Q9UNQ0); assay type: binding
T3 sequence (Q9UNQ0 1-655): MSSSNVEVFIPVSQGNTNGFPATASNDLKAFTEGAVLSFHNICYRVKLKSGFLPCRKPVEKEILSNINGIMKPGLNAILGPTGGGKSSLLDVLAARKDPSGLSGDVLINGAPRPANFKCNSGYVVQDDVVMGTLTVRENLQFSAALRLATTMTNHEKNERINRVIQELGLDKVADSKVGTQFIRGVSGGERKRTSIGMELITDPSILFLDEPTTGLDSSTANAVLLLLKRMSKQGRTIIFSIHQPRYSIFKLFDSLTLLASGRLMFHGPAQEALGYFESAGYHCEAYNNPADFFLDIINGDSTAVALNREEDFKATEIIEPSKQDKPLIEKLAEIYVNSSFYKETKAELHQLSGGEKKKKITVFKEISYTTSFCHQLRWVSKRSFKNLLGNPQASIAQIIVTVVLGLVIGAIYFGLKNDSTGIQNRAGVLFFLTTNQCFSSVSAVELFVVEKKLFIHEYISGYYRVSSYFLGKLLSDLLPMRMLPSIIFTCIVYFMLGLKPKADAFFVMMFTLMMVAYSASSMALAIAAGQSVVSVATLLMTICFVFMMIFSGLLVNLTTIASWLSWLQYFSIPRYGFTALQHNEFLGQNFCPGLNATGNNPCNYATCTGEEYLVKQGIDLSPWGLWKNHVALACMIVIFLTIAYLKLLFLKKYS

mouse ABCG2 [3] = assay type: in vivo, mice
[4] = clinical trials in humans; cited from earlier work
pancreatic cancer = settings: oral administration of 8 g curcumin daily up to 18 months; cited from earlier work

Compound: COc1ccc2c3c([nH]c2c1)[C@H](C=C(C)C)N1C(=O)[C@@H]2CCCN2C(=O)[C@@H]1C3 [FTC, fumitremorgin C]
- inhibition of the efflux of Bodipy-prazosin in brain capillaries (ABCG2): 50%
- luminal BODIPY FL prazosin fluorescence, % of control capillaries (ABCG2; 5 μM inhibitor, steady state): approximately 50%

Compound: COc1cc2c(cc1OC)CN(CCc1ccc(NC(=O)c3cccc4c(=O)c5cccc(OC)c5[nH]c34)cc1)CC2 [GF120918]
- IC50 (MCF-7 cells): 18 µM

Compound: COc1ccc2c3c([nH]c2c1)[C@H](CC(C)C)N1C(=O)[C@H](CCC(=O)OC(C)(C)C)NC(=O)[C@@H]1C3 [Ko143]
- IC50 (MCF-7 cells): 19 µM

- half-life (mouse ABCG2 [1]; FVB, mouse, plasma, po): 301 min
- half-life (mouse ABCG2 [1]; FVB, mouse, plasma, po, 20 mg/kg): 64.8 min
- Cmax (mouse ABCG2 [1]; FVB, mouse, plasma, po, 20 mg/kg, Cmax of SASP, SASP 20 mg/kg PO, vehicle pretreatment, wild-type mice): 1230 ng/mL
- concentration at 24 h (mouse ABCG2 [2]): < 1 ng/mL
- IC50 (human ABCG2): 1020 nM
- SASP plasma level in abcg2-/- mice relative to abcb1a-/- and wild-type groups (mouse ABCG2 [3]; 90 min after SASP 20 mg/kg PO): 10-20 fold
- concentration at 90 min (mouse ABCG2 [3]; FVB, mouse, plasma, oral, 20 mg/kg): ~540 ng/mL and 12400 ng/mL
Compound: O=C(O)c1cc(/N=N/c2ccc(S(=O)(=O)Nc3ccccn3)cc2)ccc1O [SASP, Sulfasalazine]

- effect of curcumin pretreatment on plasma concentration of SASP (mouse ABCG2 [1]; curcumin 40 mg/kg PO 1 h before SASP 20 mg/kg PO, FVB-WT mice, data not shown): no effect
- IC50 (ABCG2; IC50, inhibition of ABCG2-mediated efflux of BODIPY FL prazosin, ex vivo): 19 nM
- IC50 (ABCG2; IC50, inhibition of ABCG2 activity (luminal BODIPY FL prazosin fluorescence), 2 μM BODIPY FL prazosin, 1 h, room temperature): 19.4 nM
Compound: COc1cc(/C=C/C(=O)CC(=O)/C=C/c2ccc(O)c(OC)c2)ccc1O [curcumin, Diferuoyl methane]
- systemic bioavailability of orally administered curcumin [4]: relatively low
- progression of pancreatic cancer (pancreatic cancer): inhibited progression
- effect of curcumin on the levels of SASP (mouse ABCG2 [3]; abcg2-/- mice, curcumin 400 mg/kg PO, 90 min after SASP 20 mg/kg PO): no significant effect; also recorded: no significant increase
